Laboratory results published in US20220054524A1, “NEW CONJUGATED NUCLEIC ACID MOLECULES AND THEIR USES” (ONXEO, priority 2018, published 2022).

Tests used:
Assay type in all cases: cell-based
MDA-MB-231 cells = assay: Drug-induced DNA damage (γH2AX) by flow cytometry and immunofluorescence; conditions: MDA-MB-231, 5 μM, 48 h
Procedure: (§1) Cell cultures were performed with the triple negative breast cancer cell line MDA-MB-231. Cells were grown in complete L15 Leibovitz medium and maintained at 37° C. in a humidified atmosphere at 0% Co2.
For immunostaining, cells are seeded on cover slips (Menzel, Braunschweig, Germany) at a concentration of 5×10^5 cells and incubated at 37° C. during 1 day. Cells are then treated with olaparib (5 μM)+/−OX401 (5 μM). 48 h after treatment, cells are fixed for 20 min in 4% paraformaldehyde/Phosphate-Buffered Saline (PBS 1×), permeabilized in 0.5% Triton X-100 for 10 min, blocked with 2% bovine serum albumin/PBS 1× and incubated with primary antibody for 1 h at 4° C. All secondary antibodies were used at a dilution of 1/200 for 45 min at Room Temperature (RT), and DNA was stained with 4′, 6-diamidino-2-phenylindole (DAPI). […]
Cells were treated with OX401 (5 μM) or Olaparib (5 μM) for 48 hours and then fixed and permeabilized with cold (−20° C.) 70% ethanol for at least 2 hours. […] Fluorescence intensities were determined with a Guava EasyCyte cytometer (Luminex). Data were analyzed using FlowJo software (Tree Star, Calif.).

[1] = tested on: homologous recombination repair pathway; assay: Homologous recombination pathway activity (Rad51 foci); conditions: MDA-MB-231, olaparib 5 μM alone, 48 h
Procedure: as §1
For immunostaining, cells are seeded on cover slips (Menzel, Braunschweig, Germany) at a concentration of 5×10^5 cells and incubated at 37° C. during 1 day. Cells are then treated with olaparib (5 μM)+/−OX401 (5 μM). 48 h after treatment, cells are fixed for 20 min in 4% paraformaldehyde/Phosphate-Buffered Saline (PBS 1×), permeabilized in 0.5% Triton X-100 for 10 min, blocked with 2% bovine serum albumin/PBS 1× and incubated with primary antibody for 1 h at 4° C. All secondary antibodies were used at a dilution of 1/200 for 45 min at Room Temperature (RT), and DNA was stained with 4′, 6-diamidino-2-phenylindole (DAPI). The following antibodies were used: primary monoclonal mouse anti-phospho-H2AX (Millipore, Guyancourt, France), anti-Rad51 rabbit antibody (Merk Millipore, Darmstadt, Allemagne), secondary goat anti-mouse IgG conjugated with Alexa-633 (Molecular Probes, Eugene, Oreg., USA) and secondary goat anti-rabbit IgG conjugated with Alexa-488 (Molecular Probes, Eugene, Oreg., USA).

U937 cells = assay: Selection of acquired resistance by repeated treatment cycles
Procedure: Cell cultures were performed with the lymphoma cell line U937. Cells were grown in complete RPMI medium supplemented with 10% FBS and 1% Penicillin/Streptomycin and maintained at 37° C. in a humidified atmosphere at 5% CO2. This cell line was chosen according to its high sensitivity to both OX401 and talazoparib. For repeated cycles of the treatment to select resistance, U937 cells were seeded at appropriate densities (2.10^5 cells/mL) and incubated 24 h at 37° C. before addition of the drug at doses corresponding to 10-20% survival compared to non-treated cells. Resistances were selected under 2 μM talazoparib or 1.5 μM OX401. Cells were harvested on day 4 after treatment, washed, and counted after staining with 0.4% trypan blue (Eve™ counting slides, NanoEnTek). After counting, cells were seeded in appropriate culture plates, and allowed to recover (drug free period) for 3 to 7 days. Another cycle of treatment/recovery was then started for up to 4 cycles.

U937 parental cells = assay: XTT survival, U937 parental cells; conditions: Homo sapiens, U-937, 96 h, 4 days
Procedure: (§2) Cell cultures were performed with the lymphoma cell line U937. Cells were grown in complete RPMI medium supplemented with 10% FBS and 1% Penicillin/Streptomycin and maintained at 37° C. in a humidified atmosphere at 5% CO2. This cell line was chosen according to its high sensitivity to both OX401 and talazoparib. To assess the acquired resistances irreversibility, U937 parental or resistant cells were seeded in 96 well-plates (2.10^4 cells/well) and treated with increasing concentrations of talazoparib for 4 days. Following drug exposure, cell survival was measured using the XTT assay (Sigma Aldrich). Briefly, the XTT solution was added directly to each well containing cell culture and the cells incubated for 5 hours at 37° C. before reading the absorbance at 490 nm and 690 nm using a microplate reader (BMG Fluostar, Galaxy). Cell survival was calculated as the ratio of living treated cells to living mock-treated cells. The IC50 (which represents the dose at which 50% of the cells are viable) was calculated by a non-linear regression model using GraphPad Prism software (version 5.04) by plotting the percentage viability against the Log of the drug concentration on each cell line.

[2] = tested on: Ta11, Ta12 and Ta13 resistant populations; assay: XTT survival, talazoparib-resistant U937 populations; conditions: Homo sapiens, U-937, 96 h, 4 days
Procedure: as §2

Structure (SMILES) | γH2AX DSB biomarker (double-strand breaks accumulation) (MDA-MB-231 cells) | γH2AX and Rad51 foci [1] | Cell survival after the first cycle (U937 cells; U937, talazoparib 2 μM) | Cell growth during drug-free amplification periods (U937 cells; U937, talazoparib 2 μM or OX401 1.5 μM, cycles of treatment) | Cell survival after the forth cycle of treatment (U937 cells; U937, talazoparib 2 μM, 33 days after treatment start) | IC50 (U937 parental cells) | IC50 [2]
O=C(c1cc(Cc2n[nH]c(=O)c3ccccc23)ccc1F)N1CCN(C(=O)C2CC2)CC1 [olaparib] | high phosphorylation of histone H2AX | accumulation of γH2AX Foci that co-localize with Rad51 foci |  |  |  |  | 
Cn1ncnc1[C@H]1c2n[nH]c(=O)c3cc(F)cc(c23)N[C@@H]1c1ccc(F)cc1 [talazoparib] |  |  | 10% | recovered | more than 50% | 2 µM | > 4 µM
